From ChEMBL document CHEMBL3301361, “Experimental in vitro DMPK and physicochemical data on a set of publicly disclosed compounds”
Converted amounts (≈) assume the structure as drawn.

Tests used:
[1] = physchem
[2] = physchem; details: octan-1-ol/water, pH 7.4, LogD7.4
[3] = in vitro; details: human
[4] = physchem; remark: listed apart in the source
[5] = in vitro; details: human, hepatocytes
[6] = in vitro; details: human, plasma, PPB
[7] = in vitro; details: hepatocytes
[8] = physchem; details: pH 7.4 buffer
[9] = in vitro; details: SD, HW or BN, rat, plasma

SMILES | pKa [1] | logD [2] | pKa [4] | also measured
O=C(NC[C@@H](O)CN1CCC(Oc2ccc(Cl)c(Cl)c2)CC1)c1c[nH]c(=O)cc1C(F)(F)F | 7.7 | 2.71 | 8.3 | microsomal CLint ([3]; liver microsomes): 6 µL/min/mg
CCc1cccc2c3c([nH]c12)C(CC)(CC(=O)O)OCC3 (stereo not given) [ETODOLAC] |  |  | 4.15 | hepatocyte CLint [5]: 12.9 µL/min/1e6 cells
NCC1Cc2c1ccc(O)c2O (stereo not given) | 8.5 |  | 10.4 | 
CCn1cc(C(=O)O)c(=O)c2cc(F)c(N3CCNCC3)nc21 [ENOXACIN] | 8.76 | -0.83 | 6.2 | fraction unbound at 5 h [6]: 0.656
O=C(NS(=O)(=O)N1CCC(N2CCC(Oc3ccc(Cl)c(Cl)c3)CC2)CC1)c1ccccc1 | 8.1 | 2.14 | 4.3 | 
CNCCc1ccc(O)c(O)c1 [DEOXIEPINEPHRINE] | 10.9 |  | 8.97 | 
CS(=O)(=O)NC(=O)CCCc1c(-c2ccc(F)cc2)[nH]c2ccc(C#N)cc12 |  | 1.5 | 5.2 | fraction unbound at 5 h [6]: 0.013; microsomal CLint ([3]; microsomes): < 3 µL/min/mg; hepatocyte CLint [7]: 14.3 µL/min/1e6 cells
O=C(O)c1ccc(N2CCC(CN3CCC(Oc4ccc(Cl)c(Cl)c4)CC3)CC2)cc1 | 8.85 |  | 4.55 | 
CO/N=C1\CN(c2nc3c(cc2F)c(=O)c(C(=O)O)cn3C2CC2)CC1CN (stereo not given) [GEMIFLOXACIN] | 8.6 |  | 6.36 | 
CCC(CC)NC(=O)c1cn(-c2ccccc2)nc1NS(=O)(=O)c1ccc(C)cc1 |  | 2.51 | 5.3 | solubility thermodynamic [8]: 174 µM (≈ 74.1 µg/mL); fraction unbound at 5 h [6]: 0.0013; fraction unbound at 5 h [9]: 0.0033; microsomal CLint ([3]; liver microsomes): 9 µL/min/mg; hepatocyte CLint [7]: 7 µL/min/1e6 cells
Cc1nn(-c2ccccc2)c(NC(=O)NS(=O)(=O)c2ccc(Cl)cc2)c1C#N |  |  | 2.3 | fraction unbound at 5 h [9]: 0.0175; microsomal CLint ([3]; microsomes): < 3 µL/min/mg; hepatocyte CLint [7]: 21.5 µL/min/1e6 cells
Cc1ccc(S(=O)(=O)Nc2c(C(=O)N[C@@H](C)C(C)(C)C)c(C(F)(F)F)nn2-c2ccccc2)cc1 |  |  | 3.8 | fraction unbound at 5 h [6]: 0.0043; fraction unbound at 5 h [9]: 0.0097; microsomal CLint ([3]; liver microsomes): 120 µL/min/mg; hepatocyte CLint [7]: 18.8 µL/min/1e6 cells
NC1CCN(c2c(F)cc3c(=O)c(C(=O)O)cn(C4CC4)c3c2Cl)C1 (stereo not given) [CLINAFLOXACIN] | 9.1 |  | 5.77 | 
Cc1cc(Cl)ccc1OC1CCN(C[C@H](O)CNC(=O)c2c[nH]c(=O)cc2C(F)(F)F)CC1 | 7.5 | 2.37 | 8.6 | microsomal CLint ([3]; liver microsomes): < 3 µL/min/mg
O=C(NS(=O)(=O)c1ccc(Cl)cc1)N1CCC(N2CCC(Oc3ccc(Cl)c(Cl)c3)CC2)CC1 | 8.2 | 2.59 | 2.5 | fraction unbound at 5 h [6]: 0.329; microsomal CLint ([3]; liver microsomes): 5 µL/min/mg
CN(C)c1ccccc1S(=O)(=O)NC(=O)N1CCC(N2CCC(Oc3ccc(Cl)c(Cl)c3)CC2)CC1 | 8.6 | 1.74 | 6.6 | fraction unbound at 5 h [6]: 0.0175; microsomal CLint ([3]; liver microsomes): 33 µL/min/mg
Nc1nc2c(ncn2CCC(CO)CO)c(=O)[nH]1 [PENCICLOVIR] | 2.97 |  | 9.48 | 
NCC1CCC(C(=O)O)CC1 (stereo not given) | 10 |  | 4.9 | 
O=C(O)COc1cccc(C(=O)N2CCC(N3CCC(Oc4ccc(Cl)c(Cl)c4)CC3)CC2)c1 | 8.2 | 1.09 | 2.9 | fraction unbound at 5 h [6]: 0.013; microsomal CLint ([3]; microsomes): < 3 µL/min/mg
OCc1ccnc2c(O)cccc12 | 4.64 |  | 9.45 | 
Cc1ccc(S(=O)(=O)NC(=O)N2CCC(N3CCC(Oc4ccc(Cl)c(C)c4Cl)CC3)CC2)cc1 | 8.7 | 2.2 | 3.2 | fraction unbound at 5 h [6]: 0.179; microsomal CLint ([3]; liver microsomes): 3 µL/min/mg
Cc1c(O)nc(N)nc1-c1ccccc1 | 4.37 |  | 9.61 | 
COc1c(N2CCNC(C)C2)c(F)cc2c(=O)c(C(=O)O)cn(C3CC3)c12 (stereo not given) [GATIFLOXACIN] | 9.18 | -0.82 | 6.05 | 
O=C(NCC12CC3CC(CC(C3)C1)C2)c1cc(-n2ncc(=O)[nH]c2=O)ccc1Cl |  | 2.1 | 6.2 | fraction unbound at 5 h [9]: 0.0171; microsomal CLint ([3]; liver microsomes): 83.8 µL/min/mg; hepatocyte CLint [7]: 15.3 µL/min/1e6 cells; hepatocyte CLint [5]: 37 µL/min/1e6 cells

SMILES | pKa [1] | logD [2] | pKa [4] | also measured
CCOC(=O)[C@H](CCc1ccccc1)N[C@@H](C)C(=O)N1CCC[C@H]1C(=O)O | 6.4 |  | 3.1 | 
[O-][S+](Cc1ccccn1)c1nc2ccccc2[nH]1 (stereo not given) [TIMOPRAZOLE] | 3.1 |  | 8.8 | 
CCC(=O)NC(c1cccs1)c1cc(Cl)c2cccnc2c1O (stereo not given) | 2.5 |  | 8.19 | microsomal CLint ([3]; microsomes): 21.4 µL/min/mg
Nc1nc(-c2ccccc2)cc(=O)[nH]1 | 3.45 |  | 9.05 | 
CCn1cc(C(=O)O)c(=O)c2cc(F)c(N3CCNC(C)C3)c(F)c21 (stereo not given) [LOMEFLOXACIN] | 8.87 | -1.1 | 5.82 | 
O=C(NS(=O)(=O)c1ccccc1)N1CCC(N2CCC(Oc3ccc(Cl)c(Cl)c3)CC2)CC1 | 8.1 | 1.5 | 3.3 | fraction unbound at 5 h [6]: 0.186; microsomal CLint ([3]; liver microsomes): < 3 µL/min/mg
N#Cc1ccc2[nH]c(-c3ccc(F)cc3)c(CCCC(=O)NS(N)(=O)=O)c2c1 |  | 1.95 | 5.9 | solubility thermodynamic [8]: 26.9 µM (≈ 10.8 µg/mL); fraction unbound at 5 h [6]: 0.0146; microsomal CLint ([3]; liver microsomes): < 3 µL/min/mg; hepatocyte CLint [7]: 19.6 µL/min/1e6 cells
CC(C)(C)c1cc(NC(=O)NCc2ccccc2Sc2ccc3nnc(-c4ccccc4SCCO)n3c2)n(-c2ccc(O)c(Cl)c2)n1 [PF-03715455] |  |  | 7.17 | fraction unbound at 5 h [9]: 0.0013; microsomal CLint ([3]; liver microsomes): > 150 µL/min/mg; hepatocyte CLint [7]: 70.8 µL/min/1e6 cells; hepatocyte CLint [5]: 25.1 µL/min/1e6 cells
O=C(O)Cc1cccc(N2CCC(CN3CCC(Oc4ccc(Cl)c(Cl)c4)CC3)CC2)c1 | 8.9 |  | 4.4 | 
CCCN(CCC)CCc1ccc(O)c(NC(C)=O)c1 | 10.8 |  | 8.75 | microsomal CLint ([3]; liver microsomes): 36 µL/min/mg
CN(C)C1CCc2c(ccc(O)c2O)C1 (stereo not given) | 10.5 |  | 8.85 | 
COc1c(C)c2c(c(O)c1C/C=C(\C)CCC(=O)OCCN1CCOCC1)C(=O)OC2 [MYCOPHENOLATE MOFETIL] | 6.06 | 2.26 | 8.01 | solubility thermodynamic [8]: 87.1 µM (≈ 37.8 µg/mL)
CCCN(CCC)CCc1ccc(O)c2c1CC(=O)N2 [SKF-89124A] | 10.2 |  | 8.35 | 
COC(=O)c1cc2nc([S+]([O-])Cc3ncccc3C)[nH]c2cc1C (stereo not given) [PICOPRAZOLE] | 3.5 |  | 8.1 | 
Nc1ncnc2c1ncn2CCOCP(=O)(O)O [ADEFOVIR] | 4.34 |  | 7.66 | 
NC1CCc2c(ccc(O)c2O)C1 (stereo not given) | 10.5 |  | 8.9 | 
CN1CCN(c2c(F)cc3c(=O)c(C(=O)O)cn(CCF)c3c2F)CC1 [FLEROXACIN] | 7.91 |  | 5.6 | 
O=C(O)COc1ccc(Cl)cc1CN1CCCN(S(=O)(=O)Cc2ccccc2)CC1 | 8.3 |  | 3.4 | fraction unbound at 5 h [6]: 0.157
O=C(O)c1cccc(N2CCC(CN3CCC(Oc4ccc(Cl)c(Cl)c4)CC3)CC2)c1 | 8.7 |  | 4.3 | solubility thermodynamic [8]: 141 µM (≈ 65.5 µg/mL); microsomal CLint ([3]; liver microsomes): 6 µL/min/mg
Cc1ccc2c(c1)c(-c1ccnc3c(C(F)(F)F)cccc13)c(C)n2CC(=O)O | 3.5 | 1.27 | 2.4 | fraction unbound at 5 h [6]: 0.0038
CCCc1nc(C(C)(C)O)c(C(=O)OCc2oc(=O)oc2C)n1Cc1ccc(-c2ccccc2-c2nnn[nH]2)cc1 [OLMESARTAN MEDOXOMIL] | 6.05 |  | 4.29 | 
NC1CCc2cc(O)c(O)cc2C1 (stereo not given) | 10.5 |  | 9.1 | 
O=C(Nc1ccc(N2CCOCC2)c(F)c1)c1nnc(Nc2ccccc2F)o1 | 6.17 | 3.6 | 8.61 | solubility thermodynamic [8]: 1.3 µM (≈ 0.522 µg/mL)
CCCN(CCC)C1CCc2c(O)cccc2C1 (stereo not given) [5-OH-DPAT] | 10.8 |  | 9.25 | 
